Data from paper PMC12396409, “Screening and hit evaluation of a microbial metabolite library against the pathogenic Plasmodium falciparum and Toxoplasma gondii parasites” (International Journal for Parasitology: Drugs and Drug …, 2025).

Assays:
[1] = test system: P. falciparum 3D7 parasites; experiment: P. falciparum growth inhibition assay, 2-cycle (120 h treatment), delayed-death screen and dose-response; format: cell-based, Plasmodium falciparum; conditions: for Pf_120h_%Growth_Rep1 / Pf_120h_%Growth_Rep2: % growth; for Pf_120h_%Growth_Rep1: replicate 1; for Pf_120h_%Growth_Rep2: replicate 2
[2] = test system: P. falciparum 3D7 parasites; experiment: P. falciparum growth inhibition assay, 1-cycle (72 h treatment), SYBR DNA staining (library screen at 2 μg/mL and dose-response); format: cell-based, Plasmodium falciparum; conditions: for Pf_72h_%Growth_Rep1 / Pf_72h_%Growth_Rep2: % growth; for Pf_72h_%Growth_Rep1: replicate 1; for Pf_72h_%Growth_Rep2: replicate 2
[3] = test system: T. gondii RH strain (RH-Tub-eYFP) tachyzoites; experiment: microbe, parasite or virus in culture; format: cell-based, Toxoplasma gondii; conditions: 72 h; for Tg_72h_%Growth_Rep1 / Tg_72h_%Growth_Rep2: % growth; for Tg_72h_%Growth_Rep1: replicate 1; for Tg_72h_%Growth_Rep2: replicate 2
[4] = library screen at 2 μg/mL, 120 h
[5] = library screen at 2 μg/mL, 72 h
[6] = P. falciparum, 120 h, parasite screen 2 μg/mL
[7] = P. falciparum, 72 h, parasite screen 2 μg/mL
[8] = T. gondii, parasite screen 2 μg/mL
[9] = P. falciparum 3D7, 120 h, library screen at 2 μg/mL
[10] = P. falciparum 3D7, 72 h, library screen at 2 μg/mL
[11] = T. gondii RH, library screen at 2 μg/mL
[12] = T. gondii, 2 μg/mL, values are growth (% of control)
[13] = P. falciparum 3D7, 120 h, parasite screen at 2 μg/mL
[14] = P. falciparum 3D7, 72 h, parasite screen at 2 μg/mL
[15] = T. gondii, parasite screen at 2 μg/mL

CC(C)=C[C@H]1C[C@H](C)[C@]2(CC[C@]3(C)C[C@@H]4C(C)=CC(=O)[C@@H]4/C(C=O)=C\C[C@H]32)O1 [Anhydroophiobolin A]
Pf_120h_%Growth_Rep1 [1, 4]: 0.81% | Pf_120h_%Growth_Rep2 [1, 4]: -1.29% | Pf_72h_%Growth_Rep1 [2, 5]: 9.46% | Pf_72h_%Growth_Rep2 [2, 5]: 6.48% | Tg_72h_%Growth_Rep1 ([3]; library screen at 2 μg/mL): 154.62% | Tg_72h_%Growth_Rep2 ([3]; library screen at 2 μg/mL): 91.26%

C=C[C@]1(C)C[C@@H](OC(=O)CO)[C@]2(C)[C@H](C)CC[C@]3(CCC(=O)[C@H]32)[C@@H](C)[C@@H]1O [Pleuromutilin]
activity in 120 h dose-response assay against P. falciparum ([1]; 120 h): did not display any activity | IC50 ([2]; Plasmodium falciparum, 3D7, 72 h treatment, mean ± S.D., n ≥ 3, read-out: IC50 (μM), P. falciparum): > 1 µM | Screen (P. falciparum) ([2]; library screen at 2 μg/mL, 3D7, 72 h, DD from the 120 h timepoint): I, I | IC50 ([3]; Toxoplasma gondii, RH strain, mean ± S.D., n ≥ 3, read-out: IC50 (μM), T. gondii (converted)): > 1 µM | Screen (T. gondii) ([3]; library screen at 2 μg/mL, RH strain): I, I

CC(=O)O[C@@H]1CC[C@@]2(C)[C@@H](CC[C@@H](C)[C@]23Cc2c(O)cc(CO)c(C=O)c2O3)C1(C)C [Stachybotrysin B]
Pf_120h_%Growth_Rep1 [1, 6]: 161.09% | Pf_120h_%Growth_Rep2 [1, 6]: 88.10% | Pf_72h_%Growth_Rep1 [2, 7]: 81.92% | Pf_72h_%Growth_Rep2 [2, 7]: 82.33% | Tg_72h_%Growth_Rep1 [3, 8]: 84.36% | Tg_72h_%Growth_Rep2 [3, 8]: 101.19%

CCO[C@@H]1[C@@H](OC)[C@H](C)O[C@@H](O[C@H]2C[C@H]3[C@@H]4C=C5C(=O)[C@H](C)[C@@H](O[C@H]6CC[C@H](N(C)C)[C@@H](C)O6)CCC[C@H](CC)OC(=O)C[C@H]5[C@@H]4C=C(C)[C@@H]3C2)[C@@H]1OC [spinosyn L, 3'-Ethoxy-]
Pf_120h_%Growth_Rep1 [1, 6]: 13.87% | Pf_120h_%Growth_Rep2 [1, 6]: 7.84% | Pf_72h_%Growth_Rep1 [2, 7]: 10.02% | Pf_72h_%Growth_Rep2 [2, 7]: -2.72% | Tg_72h_%Growth_Rep1 [3, 8]: 142.09% | Tg_72h_%Growth_Rep2 [3, 8]: 79.71%

CC1OC(=O)C2CC3CCCCC3C(C=CC3CCCC(C)N3C)C12 (stereo not drawn) [BIA-H1744]
Pf_120h_%Growth_Rep1 [1, 9]: 64.50% | Pf_120h_%Growth_Rep2 [1, 9]: 86.77% | Pf_72h_%Growth_Rep1 [2, 10]: 66.16% | Pf_72h_%Growth_Rep2 [2, 10]: 101.99% | Tg_72h_%Growth_Rep1 [3, 11]: 122.85% | Tg_72h_%Growth_Rep2 [3, 11]: 95.17%

CN1CCC2(c3cccc4c3NC3N(C)CCC43c3cccc4c3NC3N(C)CCC43C34CCN(C)C3Nc3c(C56CCN(C)C5Nc5ccccc56)cccc34)c3ccccc3NC12 (stereo not drawn) [Psychotridine]
Pf_120h_%Growth_Rep1 [1, 6]: 15.63% | Pf_120h_%Growth_Rep2 [1, 6]: 4.30% | Pf_72h_%Growth_Rep1 [2, 7]: 4.01% | Pf_72h_%Growth_Rep2 [2, 7]: -3.25% | Mean ([3]; T. gondii, 2 μg/mL, mean of both replicates, growth (% of control)): 39.57 | Replicate 1 [3, 12]: 17.15 | Replicate 2 [3, 12]: 61.99 | Tg_72h_%Growth_Rep1 [3, 8]: 17.15% | Tg_72h_%Growth_Rep2 [3, 8]: 61.99%

Cc1ncc(-c2c[nH]c3ccccc23)o1 [BIA-P1070]
Pf_120h_%Growth_Rep1 [1, 13]: 92.74% | Pf_120h_%Growth_Rep2 [1, 13]: 139.06% | Pf_72h_%Growth_Rep1 [2, 14]: 82.71% | Pf_72h_%Growth_Rep2 [2, 14]: 88.10% | Tg_72h_%Growth_Rep1 [3, 15]: 139.44% | Tg_72h_%Growth_Rep2 [3, 15]: 88.28%

COc1ccc(/C=C/C(=O)O)cc1O [BIA-I1729]
Pf_120h_%Growth_Rep1 [1, 9]: 85.87% | Pf_120h_%Growth_Rep2 [1, 9]: 112.77% | Pf_72h_%Growth_Rep1 [2, 10]: 80.53% | Pf_72h_%Growth_Rep2 [2, 10]: 116.78% | Tg_72h_%Growth_Rep1 [3, 11]: 136.89% | Tg_72h_%Growth_Rep2 [3, 11]: 92.18%

CN1C(=O)c2ccccc2-n2c(nc3ccccc3c2=O)/C1=C\c1ccccc1 [Benzomalvin B]
Pf_120h_%Growth_Rep1 [1, 4]: 2.26% | Pf_120h_%Growth_Rep2 [1, 4]: 61.47% | Mean ([2]; P. falciparum, 72 h, 2 μg/mL, mean of both replicates, growth (% of control)): 40.89 | Pf_72h_%Growth_Rep1 [2, 5]: 1.98% | Pf_72h_%Growth_Rep2 [2, 5]: 79.80% | Tg_72h_%Growth_Rep1 ([3]; library screen at 2 μg/mL): 108.53% | Tg_72h_%Growth_Rep2 ([3]; library screen at 2 μg/mL): 82.96%
